Measurements published in patent US8629157B2, “Pyrrolidine compounds which modulate the CB2 receptor” (Boehringer Ingelheim International GmbH, priority 2009, dated 2014).

molecular target: human CB2R (Homo sapiens, UniProt P34972); assay: CB2R mediated modulation of cAMP synthesis; type: cell-based; conditions: not given
Outline: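 CHO cells expressing human CB2R were treated 30 min at 37° C. with compounds in buffer containing 1 mM IBMX, 0.25% BSA and 10 uM forskolin; cAMP in lysates was measured by DiscoverX-XS kit.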

Sequence of human CB2R (P34972 whole entry): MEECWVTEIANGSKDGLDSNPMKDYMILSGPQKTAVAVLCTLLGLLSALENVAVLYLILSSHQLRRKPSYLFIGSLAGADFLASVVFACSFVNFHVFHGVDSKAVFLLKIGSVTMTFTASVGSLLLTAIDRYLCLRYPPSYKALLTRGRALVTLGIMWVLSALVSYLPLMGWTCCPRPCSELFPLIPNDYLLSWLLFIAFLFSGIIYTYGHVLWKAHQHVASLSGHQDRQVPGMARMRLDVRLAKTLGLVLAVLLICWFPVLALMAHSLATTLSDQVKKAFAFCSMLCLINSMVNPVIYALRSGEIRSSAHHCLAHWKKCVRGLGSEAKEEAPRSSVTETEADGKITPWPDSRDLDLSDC

Row | Compound | EC50
1 | CC(C)(C)c1cc(NC(=O)[C@@H]2CCC(=O)N2c2ccc(F)cc2)no1 [(S)-1-(4-fluoro-phenyl)-5-oxo-pyrrolidine-2-carboxylic acid (5-tert-butyl-isoxazol-3-yl)-amide] | 35.7 nM
2 | CC(C)(C)c1cc(NC(=O)[C@@H]2CCC(=O)N2c2ccc([N+](=O)[O-])cc2)no1 [(S)-1-(4-nitro-phenyl)-5-oxo-pyrrolidine-2-carboxylic acid (5-tert-butyl-isoxazol-3-yl)-amide] | 21.1 nM
3 | CC(C)(C)c1cc(NC(=O)[C@@H]2CCCN2c2ncc(Cl)cc2F)on1 [(S)-1-(5-Chloro-3-fluoro-pyridin-2-yl)-pyrrolidine-2-carboxylic acid (3-tert-butyl-isoxazol-5-yl)-amide] | 0.02 nM
4 | CC(C)(C)c1cc(NC(=O)[C@@H]2CCC(=O)N2c2ccc(Cl)cn2)on1 [(S)-1-(5-Chloro-pyridin-2-yl)-5-oxo-pyrrolidine-2-carboxylic acid (3-tert-butyl-isoxazol-5-yl)-amide] | 3.44 nM
5 | CC(C)(C)c1cc(NC(=O)[C@@H]2CCC(=O)N2c2ncc(Cl)cn2)on1 [(S)-1-(5-Chloro-pyrimidin-2-yl)-5-oxo-pyrrolidine-2-carboxylic acid (3-tert-butyl-isoxazol-5-yl)-amide] | 455 nM
6 | CC(C)(C)c1cc(NC(=O)[C@@H]2CCC(=O)N2c2ccc(Cl)s2)on1 [(S)-1-(5-Chloro-thiophen-2-yl)-5-oxo-pyrrolidine-2-carboxylic acid (3-tert-butyl-isoxazol-5-yl)-amide] | 67.5 nM
7 | Cc1nc(N2C(=O)CC[C@H]2C(=O)Nc2cc(C(C)(C)C)no2)ccc1F [(S)-1-(5-Fluoro-6-methyl-pyridin-2-yl)-5-oxo-pyrrolidine-2-carboxylic acid (3-tert-butyl-isoxazol-5-yl)-amide] | 74.4 nM
8 | CC(C)(C)c1cc(NC(=O)[C@@H]2CCC(=O)N2c2ccc(F)cn2)on1 [(S)-1-(5-Fluoro-pyridin-2-yl)-5-oxo-pyrrolidine-2-carboxylic acid (3-tert-butyl-isoxazol-5-yl)-amide] | 8.15 nM
9 | COc1ccc(N2C(=O)CC[C@H]2C(=O)Nc2cc(C(C)(C)C)no2)nc1 [(S)-1-(5-Methoxy-pyridin-2-yl)-5-oxo-pyrrolidine-2-carboxylic acid (3-tert-butyl-isoxazol-5-yl)-amide] | 22.1 nM
10 | Cc1ccc(N2C(=O)CC[C@H]2C(=O)Nc2cc(C(C)(C)C)no2)nc1 [(S)-1-(5-Methyl-pyridin-2-yl)-5-oxo-pyrrolidine-2-carboxylic acid (3-tert-butyl-isoxazol-5-yl)-amide] | 15.4 nM
11 | CC(C)(C)c1cc(NC(=O)[C@@H]2CCCN2c2ccc(C(F)(F)F)cn2)on1 [(S)-1-(5-Trifluoromethyl-pyridin-2-yl)-pyrrolidine-2-carboxylic acid (3-tert-butyl-isoxazol-5-yl)-amide] | 0.023 nM
12 | CC(C)(C)c1csc(NC(=O)[C@@H]2CCCN2c2ccc(C(F)(F)F)cn2)n1 [(S)-1-(5-Trifluoromethyl-pyridin-2-yl)-pyrrolidine-2-carboxylic acid (4-tert-butyl-thiazol-2-yl)-amide] | 8.56 nM
13 | CC(C)(C)c1cc(NC(=O)[C@@H]2CCC(=O)N2c2ccc(C(F)(F)F)c(F)n2)on1 [(S)-1-(6-Fluoro-5-trifluoromethyl-pyridin-2-yl)-5-oxo-pyrrolidine-2-carboxylic acid (3-tert-butyl-isoxazol-5-yl)-amide] | 8.05 nM
14 | CCCS(=O)(=O)N1CCC[C@H]1C(=O)Nc1cc(C(C)(C)C)on1 [(S)-1-(Propane-1-sulfonyl)-pyrrolidine-2-carboxylic acid (5-tert-butyl-isoxazol-3-yl)-amide] | 120 nM
15 | CC(C)(C)c1cc(NC(=O)[C@@H]2CCCN2CC2CCOC2)on1 (stereo partly drawn) [(S)-1-(Tetrahydro-furan-3-ylmethyl)-pyrrolidine-2-carboxylic acid (3-tert-butyl-isoxazol-5-yl)-amide] | 0.116 nM
16 | CC(C)(C)c1cc(NC(=O)[C@@H]2CCCN2CC2CCCOC2)on1 (stereo partly drawn) [(S)-1-(Tetrahydro-pyran-3-ylmethyl)-pyrrolidine-2-carboxylic acid (3-tert-butyl-isoxazol-5-yl)-amide] | 0.376 nM
17 | CC(C)(C)c1csc(NC(=O)[C@@H]2CCCN2C2CCOCC2)n1 [(S)-1-(Tetrahydro-pyran-4-yl)-pyrrolidine-2-carboxylic acid (4-tert-butyl-thiazol-2-yl)-amide] | 279 nM
18 | O=C(Nc1nc2cc(Cl)c(Cl)cc2[nH]1)[C@@H]1CCCN1C1CCOCC1 [(S)-1-(Tetrahydro-pyran-4-yl)-pyrrolidine-2-carboxylic acid (5,6-dichloro-1H-benzimidazol-2-yl)-amide] | 165 nM
19 | CC(C)(C)Cc1cc(NC(=O)[C@@H]2CCCN2C2CCOCC2)on1 [(S)-1-(Tetrahydro-pyran-4-yl)-pyrrolidine-2-carboxylic acid [3-(2,2-dimethyl-propyl)-isoxazol-5-yl]-amide] | 14.9 nM

Row | Compound | EC50
20 | O=C(Nc1nc(-c2ccccc2)ns1)[C@@H]1CCCN1CC1CCOCC1 [(S)-1-(Tetrahydro-pyran-4-ylmethyl)-pyrrolidine-2-carboxylic acid (3-phenyl-1,2,4-thiadiazol-5-yl)-amide] | 40 nM
21 | CC(C)(C)c1cc(NC(=O)[C@@H]2CCCN2CC2CCOCC2)on1 [(S)-1-(Tetrahydro-pyran-4-ylmethyl)-pyrrolidine-2-carboxylic acid (3-tert-butyl-isoxazol-5-yl)-amide] | 0.438 nM
22 | CC(C)(C)c1csc(NC(=O)[C@@H]2CCCN2CC2CCOCC2)n1 [(S)-1-(Tetrahydro-pyran-4-ylmethyl)-pyrrolidine-2-carboxylic acid (4-tert-butyl-thiazol-2-yl)-amide] | 17.6 nM
23 | O=C(Nc1nc2cc(Cl)c(Cl)cc2[nH]1)[C@@H]1CCCN1CC1CCOCC1 [(S)-1-(Tetrahydro-pyran-4-ylmethyl)-pyrrolidine-2-carboxylic acid (5,6-dichloro-1H-benzimidazol-2-yl)-amide] | 56.2 nM
24 | O=C(Nc1nc2cc(Cl)ccc2[nH]1)[C@@H]1CCCN1CC1CCOCC1 [(S)-1-(Tetrahydro-pyran-4-ylmethyl)-pyrrolidine-2-carboxylic acid (5-chloro-1H-benzimidazol-2-yl)-amide] | 48.6 nM
25 | CCc1sc(NC(=O)[C@@H]2CCCN2CC2CCOCC2)nc1-c1ccccc1 [(S)-1-(Tetrahydro-pyran-4-ylmethyl)-pyrrolidine-2-carboxylic acid (5-ethyl-4-phenyl-thiazol-2-yl)-amide] | 10.9 nM
26 | CC(C)(C)c1nnc(NC(=O)[C@@H]2CCCN2CC2CCOCC2)s1 [(S)-1-(Tetrahydro-pyran-4-ylmethyl)-pyrrolidine-2-carboxylic acid (5-tert-butyl-1,3,4-thiadiazol-2-yl)-amide] | 16.5 nM
27 | O=C(Nc1ccc(C(F)(F)F)cn1)[C@@H]1CCCN1CC1CCOCC1 [(S)-1-(Tetrahydro-pyran-4-ylmethyl)-pyrrolidine-2-carboxylic acid (5-trifluoromethyl-pyridin-2-yl)-amide] | 212 nM
28 | O=C(Nc1nc2ccc(Cl)cc2s1)[C@@H]1CCCN1CC1CCOCC1 [(S)-1-(Tetrahydro-pyran-4-ylmethyl)-pyrrolidine-2-carboxylic acid (6-chloro-benzothiazol-2-yl)-amide] | 188 nM
29 | CC(C)(C)Cc1cc(NC(=O)[C@@H]2CCCN2CC2CCOCC2)on1 [(S)-1-(Tetrahydro-pyran-4-ylmethyl)-pyrrolidine-2-carboxylic acid [3-(2,2-dimethyl-propyl)-isoxazol-5-yl]-amide] | 3.46 nM
30 | CC(C)(CO)c1cc(NC(=O)[C@@H]2CCCN2C2CCOCC2)on1 [(S)-1-(tetrahydro-pyran-4-yl)-pyrrolidine-2-carboxylic acid [3-(2-hydroxy-1,1-dimethyl-ethyl)-isoxazol-5-yl]-amide] | 50 nM
31 | CC(C)(C)c1cc(NC(=O)[C@@H]2CCCN2C2CCC2)on1 [(S)-1-Cyclobutyl-pyrrolidine-2-carboxylic acid (3-tert-butyl-isoxazol-5-yl)-amide] | 6.28 nM
32 | CC(C)(C)c1nnc(NC(=O)[C@@H]2CCCN2C2CCC2)s1 [(S)-1-Cyclobutyl-pyrrolidine-2-carboxylic acid (5-tert-butyl-1,3,4-thiadiazol-2-yl)-amide] | 255 nM
33 | CC(C)(C)c1cc(NC(=O)[C@@H]2CCCN2CC2C=CCCC2)on1 (stereo partly drawn) [(S)-1-Cyclohex-2-enylmethyl-pyrrolidine-2-carboxylic acid (3-tert-butyl-isoxazol-5-yl)-amide] | 0.072 nM
34 | CC(C)(C)c1cc(NC(=O)[C@@H]2CCCN2C2CCCCC2)on1 [(S)-1-Cyclohexyl-pyrrolidine-2-carboxylic acid (3-tert-butyl-isoxazol-5-yl)-amide] | 0.173 nM
35 | CC(C)(C)c1nnc(NC(=O)[C@@H]2CCCN2C2CCCCC2)s1 [(S)-1-Cyclohexyl-pyrrolidine-2-carboxylic acid (5-tert-butyl-1,3,4-thiadiazol-2-yl)-amide] | 30 nM
36 | CC(C)(C)c1cc(NC(=O)[C@@H]2CCCN2CC2CCCCC2)on1 [(S)-1-Cyclohexylmethyl-pyrrolidine-2-carboxylic acid (3-tert-butyl-isoxazol-5-yl)-amide] | 0.079 nM
37 | CC(C)(C)c1cc(NC(=O)[C@@H]2CCCN2C2CCCC2)on1 [(S)-1-Cyclopentyl-pyrrolidine-2-carboxylic acid (3-tert-butyl-isoxazol-5-yl)-amide] | 2.39 nM
38 | CC(C)(C)c1nnc(NC(=O)[C@@H]2CCCN2C2CCCC2)s1 [(S)-1-Cyclopentyl-pyrrolidine-2-carboxylic acid (5-tert-butyl-1,3,4-thiadiazol-2-yl)-amide] | 165 nM

same assay, conditions: CHO cells expressing human CB2R; inhibition of forskolin-stimulated cAMP synthesis; mean; read-out: CB2 CAMP @ EC50 nM (mean)

Row | EC50 | Compound
39 | 391 nM | O=C(Nc1nc2cc(F)ccc2[nH]1)[C@@H]1CCCN1C1CCOCC1 [(S)-1-(Tetrahydro-pyran-4-yl)-pyrrolidine-2-carboxylic acid (5-fluoro-1H-benzimidazol-2-yl)-amide]
40 | 3.14 nM | O=C(Nc1nc2cc(Cl)ccc2s1)[C@@H]1CCCN1CC1CCOCC1 [(S)-1-(Tetrahydro-pyran-4-ylmethyl)-pyrrolidine-2-carboxylic acid (5-chloro-benzothiazol-2-yl)-amide]
